Data on 1 compound can be found in article PMC8494060 (Science translational medicine, 2020).

This test addresses T1, OGA (Rattus norvegicus, UniProt Q8VIJ5).
T1 sequence (Q8VIJ5 1-916): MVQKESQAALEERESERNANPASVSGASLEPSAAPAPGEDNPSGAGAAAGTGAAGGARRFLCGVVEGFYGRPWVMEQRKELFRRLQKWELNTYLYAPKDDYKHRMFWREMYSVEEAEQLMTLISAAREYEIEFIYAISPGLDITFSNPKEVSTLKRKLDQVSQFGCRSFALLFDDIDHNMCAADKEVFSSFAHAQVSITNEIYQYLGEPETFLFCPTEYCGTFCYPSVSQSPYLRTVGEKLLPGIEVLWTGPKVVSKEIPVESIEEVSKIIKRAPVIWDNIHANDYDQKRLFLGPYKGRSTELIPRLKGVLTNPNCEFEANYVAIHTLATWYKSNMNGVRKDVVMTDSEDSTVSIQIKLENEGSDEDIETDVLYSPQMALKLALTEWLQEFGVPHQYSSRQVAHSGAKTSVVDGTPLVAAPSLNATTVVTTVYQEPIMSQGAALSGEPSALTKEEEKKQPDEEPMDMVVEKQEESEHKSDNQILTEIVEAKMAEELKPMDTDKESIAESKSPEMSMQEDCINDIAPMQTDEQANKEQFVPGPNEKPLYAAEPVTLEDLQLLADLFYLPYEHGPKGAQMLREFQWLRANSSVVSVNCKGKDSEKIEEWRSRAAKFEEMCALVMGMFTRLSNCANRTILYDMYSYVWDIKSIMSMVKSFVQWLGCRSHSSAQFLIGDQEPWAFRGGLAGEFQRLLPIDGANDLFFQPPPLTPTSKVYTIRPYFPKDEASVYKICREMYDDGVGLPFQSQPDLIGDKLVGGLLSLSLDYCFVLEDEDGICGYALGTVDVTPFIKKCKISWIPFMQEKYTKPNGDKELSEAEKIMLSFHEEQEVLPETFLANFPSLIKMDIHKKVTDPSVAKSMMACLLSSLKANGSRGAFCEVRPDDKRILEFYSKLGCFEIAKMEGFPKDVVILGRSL
Briefly: Rat OGA occupancy of thiamet G. The class given is in vivo. The note with it: 2 h before tracer.

For the compound `CCN=C1N[C@@H]2[C@@H](O)[C@H](O)[C@@H](CO)O[C@@H]2S1` [thiamet G], the “LSN3316612 tracer uptake blocked” value runs as follows: (thiamet G 30 mg/kg p.o.) 80%; (thiamet G 100 mg/kg p.o.) 94%.
